According to article PMC12305296, “Repurposing of FDA‐Approved Drugs to Disrupt Iron Uptake in Mycobacterium abscessus: Targeting Salicylate Synthase as a Novel Approach” (Chemical Biology & Drug Design, 2025):
Converted amounts (≈) assume the structure as drawn.

How the values were obtained:
recombinant Mab‐SaS [1] = target: T1, recombinant Mab‐SaS (Mycobacteroides abscessus, UniProt B1MAQ5); test: Mab‐SaS enzyme inhibition, direct fluorometric assay; assay type: biochemical, Mycobacterium abscessus; details: for remaining activity at 100 µM: read-out: residual activity at 100 μM (%); for Ki: steady‐state kinetics, competitive inhibition equation; for mode of inhibition towards CHO: reciprocal plots of steady‐state kinetics; for inhibition at 100 µM: read-out: inhibition of Mab‐SaS at 100 μM
Protocol: The recombinant Mab‐SaS was expressed in E. coli and purified as previously reported (Mori et al. [2023]). Enzyme activity was determined by a direct fluorometric assay (Mori et al. [2020]). Briefly, the assays were performed in 400 μL of 50 mM potassium phosphate pH 8.0, containing 5 mM MgCl2, and 1–2 μM Mab‐SaS. The reaction was started by the addition of CHO and monitored using a PerkinElmer LS3 fluorimeter (Ex. λ = 305 nm, Em. λ = 410 nm; PerkinElmer, Waltham, MA, USA).
The compounds identified by the in silico investigations were purchased from CymitQuimica S.L. and dissolved at a concentration of 20 mM in dimethylsulfoxide (DMSO) or water, according to their solubility. Specifically, gentamycin, cytidine, amifostine, and hydroxystilbamidine were dissolved in water, while esomeprazole, fostamatinib, S‐adenosyl‐L‐homocysteine, norepinephrine, labetalol, levolansoprazole, and nebivolol were dissolved in DMSO.
The inhibitory activity of the candidates was initially evaluated at a final concentration of 100 μM, using a subsaturating concentration of the substrate (CHO) of 70 μM. […] IC50 was calculated by measuring enzymatic activity in the presence of different compound concentrations, using (Equation 1), where A[I] is the enzyme activity at inhibitor concentration [I] and A[0] is the enzyme activity without inhibitor. (1) AI=A0×1−I/I+IC50
The inhibition constant values (K i) were determined by assaying Mab‐SaS at different substrate and compound concentrations and using an adapted equation for competitive inhibition (Equation 2) with GraphPad 8.0 software. (2) v=VmaxS/S+Km1+I/Ki

recombinant Mab‐SaS [2] = target: T1, recombinant Mab‐SaS; test: PAINS control assays (BSA, Triton X‐100, DTT) on Mab‐SaS inhibition; assay type: biochemical, Mycobacterium abscessus; details: for inhibition in presence of BSA and Triton X‐100 (aggregation check): 0.1 mg/mL BSA or 0.01% (v/v) Triton X‐100; for effect of DTT on inhibition (cysteine reactivity check): 100 mM DTT
M. smegmatis mc^2155 = test: REMA antimycobacterial assay in iron‐limiting chelated Sauton's medium; assay type: cell-based; details: Mycolicibacterium smegmatis, iron‐limiting conditions
Protocol: Antimycobacterial activity of the best compounds was evaluated by REMA assay in iron‐limiting chelated Sauton's medium on M. smegmatis MC^2 155 (Siegrist et al. [2009]; Mehra and Philips [2014]). This microorganism is widely used as a non‐pathogenic model for Mab, since it shares similar biological characteristics and replicates more rapidly than other mycobacteria. By using this non‐pathogenic microorganism, we could efficiently study processes related to Mab, while minimizing the hazards and technical difficulties of working directly with a pathogenic strain.

T1 sequence (B1MAQ5 entry or part of it): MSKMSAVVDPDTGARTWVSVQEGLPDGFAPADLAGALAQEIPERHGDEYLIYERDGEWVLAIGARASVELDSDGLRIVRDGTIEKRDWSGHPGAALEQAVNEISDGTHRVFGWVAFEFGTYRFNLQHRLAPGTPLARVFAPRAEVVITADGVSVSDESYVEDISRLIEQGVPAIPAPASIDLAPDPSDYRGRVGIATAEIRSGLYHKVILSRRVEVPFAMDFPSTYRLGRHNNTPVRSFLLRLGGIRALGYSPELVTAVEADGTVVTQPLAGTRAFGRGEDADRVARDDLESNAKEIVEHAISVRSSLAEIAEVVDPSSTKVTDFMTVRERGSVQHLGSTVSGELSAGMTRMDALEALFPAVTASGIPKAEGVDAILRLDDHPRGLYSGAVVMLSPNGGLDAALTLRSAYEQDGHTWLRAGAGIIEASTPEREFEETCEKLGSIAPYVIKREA

For `NCCCNCCSP(=O)(O)O` [Amifostine], the remaining activity at 100 µM (recombinant Mab‐SaS [1]) was 78.1 ± 3.2%.
With `Nc1ccn([C@@H]2O[C@H](CO)[C@@H](O)[C@H]2O)c(=O)n1` [Cytidine] the remaining activity at 100 µM (recombinant Mab‐SaS [1]) was 88.8 ± 2.5%.
With `COc1ccc2nc([S@@+]([O-])Cc3ncc(C)c(OC)c3C)[nH]c2c1` [Esomeprazole] the “inhibition in presence of BSA and Triton X‐100 (aggregation check)” value (shortened to “inhibition in presence”) (recombinant Mab‐SaS [2]) was “inhibited the enzyme”, the “effect of DTT on inhibition (cysteine reactivity check)” value (“effect of DTT on inhibition” below) (recombinant Mab‐SaS [2]) was “no impact on the inhibition” and the IC50 (recombinant Mab‐SaS [1]) was 13.6 ± 1.1 µM. For the same molecule, the “inhibition of Mab‐SaS at 100 μM” value (recombinant Mab‐SaS [1]; 100 μM compound, 70 μM CHO) was “completely blocked the enzymatic activity”, the Ki (recombinant Mab‐SaS [1]) was 3.7 ± 0.4 µM and the remaining activity at 100 µM (recombinant Mab‐SaS [1]) was 3.3 ± 1.7%. The “mode of inhibition towards CHO” value (recombinant Mab‐SaS [1]) was “competitive”.
With `COc1cc(Nc2ncc(F)c(Nc3ccc4c(n3)N(COP(=O)(O)O)C(=O)C(C)(C)O4)n2)cc(OC)c1OC` [Fostamatinib] the “inhibition in presence” value (recombinant Mab‐SaS [2]) was “inhibited the enzyme”, the “effect of DTT on inhibition” value (recombinant Mab‐SaS [2]) was “no impact on the inhibition” and the IC50 (recombinant Mab‐SaS [1]) was 21 ± 1.3 µM. The “inhibition of Mab‐SaS at 100 μM” value (recombinant Mab‐SaS [1]; 100 μM compound, 70 μM CHO) was “completely blocked the enzymatic activity”, the “residual activity at 100 μM (%)” value (recombinant Mab‐SaS [1]; 100 μM compound, 70 μM CHO, Mean ± SD of three experiments) was 11.6 ± 0.7% and the Ki (recombinant Mab‐SaS [1]) was 11.7 ± 0.7 µM. The “mode of inhibition towards CHO” value (recombinant Mab‐SaS [1]) was “competitive”.
For `CNC(C)C1CCC(N)C(OC2C(N)CC(N)C(OC3OCC(C)(O)C(NC)C3O)C2O)O1` (stereo not shown) [Gentamycin], the “inhibition of Mab‐SaS at 100 μM” value (recombinant Mab‐SaS [1]; 100 μM compound, 70 μM CHO) was “did not exhibit any inhibitory effect” and the remaining activity at 100 µM (recombinant Mab‐SaS [1]) was 98.8 ± 5.7%.
In the case of `N=C(N)c1ccc(/C=C/c2ccc(C(=N)N)cc2O)cc1` [Hydroxystilbamidine], the “inhibition in presence” value (recombinant Mab‐SaS [2]) is reported as “inhibited the enzyme”, the “effect of DTT on inhibition” value (recombinant Mab‐SaS [2]) is reported as “no impact on the inhibition” and the MIC (M. smegmatis mc^2155) is reported as 250 µM (≈ 70.1 µg/mL). For the same molecule, the IC50 (recombinant Mab‐SaS [1]) was 11.5 ± 1.1 µM, the “inhibition of Mab‐SaS at 100 μM” value (recombinant Mab‐SaS [1]; 100 μM compound, 70 μM CHO) was “completely blocked the enzymatic activity” and the Ki (recombinant Mab‐SaS [1]) was 5.4 ± 0.5 µM. For the same molecule, the remaining activity at 100 µM (recombinant Mab‐SaS [1]) was 0.5 ± 0.3% and the “mode of inhibition towards CHO” value (recombinant Mab‐SaS [1]) was “competitive”.
In the case of `CC(CCc1ccccc1)NCC(O)c1ccc(O)c(C(N)=O)c1` (stereo not shown) [Labetalol], the inhibition at 100 µM (recombinant Mab‐SaS [1]) is reported as about 53% and the remaining activity at 100 µM (recombinant Mab‐SaS [1]) is reported as 47 ± 2.1%.
Work on `Cc1c(OCC(F)(F)F)ccnc1C[S@+]([O-])c1nc2ccccc2[nH]1` [Levolansoprazole] yielded an inhibition at 100 µM (recombinant Mab‐SaS [1]) of about 37% and a remaining activity at 100 µM (recombinant Mab‐SaS [1]) of 62.8 ± 1.7%.
Work on `OC(CNCC(O)C1CCc2cc(F)ccc2O1)C1CCc2cc(F)ccc2O1` (stereo not shown) [Nebivolol] yielded a remaining activity at 100 µM (recombinant Mab‐SaS [1]) of 82.3 ± 1.3%.
`NC[C@H](O)c1ccc(O)c(O)c1` [Norepinephrine] gave an inhibition at 100 µM (recombinant Mab‐SaS [1]) of about 24% and a remaining activity at 100 µM (recombinant Mab‐SaS [1]) of 75.5 ± 1.4%.
`Nc1ncnc2c1ncn2[C@@H]1O[C@H](CSCC[C@H](N)C(=O)O)[C@@H](O)[C@H]1O` [S‐adenosyl‐L‐homocysteine] was tested, and the remaining activity at 100 µM (recombinant Mab‐SaS [1]) was 102 ± 3.8%.
